Results published in patent US20250282785A1, “PYRROLIDINONE DERIVATIVES AS INHIBITORS OF NF KAPPA B INDUCING KINASE” (priority 2022, published 2025).

Key:
[1] = biological target: Recombinant Human NF-Kappab-Inducing Kinase (NIK/MAP3K14) (Homo sapiens, UniProt Q99558); test: Inhibition of auto-phosphorylation of recombinant human NIK/MAP3K14 (AlphaScreen); format: biochemical; conditions: NIK/MAP3K14 auto-phosphorylation, 5 microM ATP, 1 nM enzyme, 2 h at 25° C.; average of values; read-out: Assay 1 IC50
Sequence of Recombinant Human NF-Kappab-Inducing Kinase (NIK/MAP3K14) (Q99558 whole entry): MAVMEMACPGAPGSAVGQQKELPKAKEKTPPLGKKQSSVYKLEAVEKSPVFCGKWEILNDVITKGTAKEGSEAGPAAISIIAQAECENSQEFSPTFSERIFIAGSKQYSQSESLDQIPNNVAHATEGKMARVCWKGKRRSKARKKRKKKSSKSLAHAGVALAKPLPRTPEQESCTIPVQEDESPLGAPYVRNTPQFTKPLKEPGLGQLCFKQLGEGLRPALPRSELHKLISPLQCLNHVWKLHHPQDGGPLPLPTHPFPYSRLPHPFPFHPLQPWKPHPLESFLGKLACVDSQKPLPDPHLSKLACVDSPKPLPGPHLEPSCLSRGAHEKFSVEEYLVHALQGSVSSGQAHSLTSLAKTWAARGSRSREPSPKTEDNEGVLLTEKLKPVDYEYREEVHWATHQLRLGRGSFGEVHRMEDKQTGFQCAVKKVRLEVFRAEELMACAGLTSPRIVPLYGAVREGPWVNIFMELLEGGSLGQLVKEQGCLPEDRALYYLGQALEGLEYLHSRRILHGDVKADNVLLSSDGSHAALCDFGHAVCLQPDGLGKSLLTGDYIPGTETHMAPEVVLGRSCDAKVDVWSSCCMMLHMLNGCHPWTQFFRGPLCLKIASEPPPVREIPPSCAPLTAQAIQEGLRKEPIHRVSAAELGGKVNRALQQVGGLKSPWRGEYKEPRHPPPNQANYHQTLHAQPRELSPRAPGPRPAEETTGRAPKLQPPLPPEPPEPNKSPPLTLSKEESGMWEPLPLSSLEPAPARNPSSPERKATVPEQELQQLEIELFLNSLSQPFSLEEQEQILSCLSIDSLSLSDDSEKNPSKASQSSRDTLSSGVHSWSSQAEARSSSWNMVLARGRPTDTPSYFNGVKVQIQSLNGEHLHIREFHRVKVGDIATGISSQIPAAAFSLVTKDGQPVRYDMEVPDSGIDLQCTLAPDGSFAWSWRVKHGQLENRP
Protocol: Biological Assay 1: Inhibition of Auto-Phosphorylation of Recombinant Human NF-Kappab-Inducing Kinase (NIK/MAP3K14) Activity (AlphaScreen®)
NIK/MAP3K14 auto-phosphorylation activity was measured using the AlphaScreen® ((αscreen) format (Perkin ElmeR). All compounds tested were dissolved in dimethyl sulfoxide (DMSO) and further dilutions were made in assay buffer. Final DMSO concentration was 0.7% (v/v) in assays. Assay buffer was 50 mM Tris pH 7.5 containing 1 mM EGTA (ethylene glycol tetraacetic acid), 1 mM DTT (dithiothreitol), 0.1 mM Na3VO4, 5 mM MgCl2, 0.01% Tween® 20. Assays were carried out in 384 well Proxiplates (Perkin ElmeR). Incubations consisted of compound, 5 microM Adenosine-5′-triphosphate (ATP), and 1 nM NIK/MAP3K14. Incubations were initiated by addition of GST-tagged NIK/MAP3K14 enzyme, carried out for 2 h at 25° C. and terminated by addition of stop buffer containing anti-phospho-IKK Ser176/180 antibody. Protein A Acceptor and Glutathione-donor beads were added before reading using an EnVision® Multilabel Plate Reader (Perkin ElmeR). Signal obtained in the wells was normalized using high (full enzyme activity, 0.7% DMSO) and low controls (no enzyme activity, 0.7% DMSO, no ATP). IC50's were determined by fitting a sigmoidal curve to % inhibition of control versus Log10 compound concentration.

[2] = test system: p-IKKα levels in L363 (NIK translocated multiple myeloma) cells; test: Effect of compounds on p-IKKα levels in L363 cells (AlphaLISA SureFire Ultra); format: cell-based; conditions: Homo sapiens, L-363; L363 cells, BAFF stimulated, MG132, 6 h; average of values; read-out: Assay 2 IC50
Protocol: Biological Assay 2: Effect of Compounds on p-IKKα Levels in L363 (NIK Translocated Multiple Myeloma) Cells
All compounds tested were dissolved and serially diluted in DMSO, 1:3 dilution for 11 points in an Echo compatible plate. 100% DMSO is added to columns 12 and 24 of the plate to serve as high and low signal controls. This compound plate was used to spot 20 nl of compound or DMSO into a Greiner 384 well TC plate (781080). Final DMSO concentration was […] (v/v) in cell assays. Human L363 cells (ATCC) were cultured in RPMI 1640 medium supplemented with GlutaMax, non-essential amino acids, sodium pyruvate and 10% fetal bovine serum. Cells were routinely maintained at densities of 0.2×10^6 cells per ml −2×10^6 cells per ml at 37° C. in a humidified 5% CO2 atmosphere incubator. Cells were passaged twice a week splitting back to obtain the low density. The day before the assay, cells were washed twice in HBSS, resuspended in DMEM+0.5% IgG and protease free BSA (Jackson Immuno Research Laboratories), +/−250 ng/ml recombinant human B-cell activating factor (BAFF/BLyS/TNFSF13B) and incubated overnight at 37° C. in a humidified 5% CO2 atmosphere (bulk stimulation with or without BAFF). The next day, cell concentration was adjusted to 1×10^7 cells/ml in DMEM+/−250 ng/ml BAFF+/−10 uM MG132 and plated at 10 ul/well into compound or DMSO spotted 384 well TC plates. Seeded cells were incubated at 37° C. in a humidified 5% CO2 atmosphere for 6 h. After 6 h, plates were removed from the incubator and cell lysis was achieved by the addition of 2.5 μl 5× lysis buffer containing protease and phosphatase inhibitors, followed by shaking on a plate shaker at room temperature for 15 min. At the end of this incubation, lysed cells were sequentially treated and incubated with acceptor and donor bead mixes according to the manufacturer's protocol for a 1 plate/2-incubation suspension cell assay (AlphaLISA SureFire Ultra p-IKKα (Ser 176/180) Assay Kit (Perkin ElmeR). Plates were read using an EnVision® Multilabel Plate Reader (Perkin ElmeR). Within an experiment, a concentration response curve for each compound was run in duplicate. Signal obtained in the test wells was normalized using high signal (BAFF stimulated cells, DMSO, MG132) and low signal (unstimulated cells, DMSO) controls. To determine the IC50, a sigmoidal curve was fitted to the plot of % inhibition versus Log10 compound concentration.

Row | Structure (SMILES) | IC50 [1] [nM] | IC50 [2] [nM]
1 | Cc1nc(N)c2nc(-c3cccc(-c4cc([C@]5(O)CCN(C)C5=O)no4)c3)ccc2n1 [Example 3, (R)-3-(5-(3-(4-Amino-2-methylpyrido[3,2-d]pyrimidin-6-yl)phenyl)isoxazol-3-yl)-3-hydroxy-1-methylpyrrolidin-2-one] | < 100 | > 501
2 | CN1CC[C@@](O)(c2cc(-c3cccc(-c4ccc5[nH]nc(N)c5n4)c3)no2)C1=O [Example 4, (R)-3-(3-(3-(3-Amino-1H-pyrazolo[4,3-b]pyridin-5-yl)phenyl)isoxazol-5-yl)-3-hydroxy-1-methylpyrrolidin-2-one] | < 100 | > 501
3 | CN1CC[C@@](O)(c2cc(-c3cccc(-c4ccc5c(n4)c(N)nn5C)c3)no2)C1=O [Example 5, (R)-3-(3-(3-(3-Amino-1-methyl-1H-pyrazolo[4,3-b]pyridin-5-yl)phenyl)isoxazol-5-yl)-3-hydroxy-1-methylpyrrolidin-2-one] | 100 to 500 | > 501
4 | CN1CC[C@@](O)(c2cc(-c3cccc(-c4ccc(N)c(C(N)=O)n4)c3)no2)C1=O [Example 7, (R)-3-Amino-6-(3-(5-(3-hydroxy-1-methyl-2-oxopyrrolidin-3-yl)isoxazol-3-yl)phenyl)picolinamide] | < 100 | < 100
5 | COc1cc(C(N)=O)nc(-c2cccc(-c3cc([C@]4(O)CCN(C)C4=O)on3)c2)c1 [Example 8, (R)-6-(3-(5-(3-Hydroxy-1-methyl-2-oxopyrrolidin-3-yl)isoxazol-3-yl)phenyl)-4-methoxypicolinamide] | < 100 | 100 to 500
6 | CN1CC[C@@](O)(c2cc(-c3cccc(-c4ncc5ccnc(N)c5n4)c3)no2)C1=O [Example 10, (R)-3-(3-(3-(8-Aminopyrido[3,4-d]pyrimidin-2-yl)phenyl)isoxazol-5-yl)-3-hydroxy-1-methylpyrrolidin-2-one] | < 100 | > 501
7 | CN1CC[C@@](O)(c2cc(-c3cccc(-c4ccc5ncnc(N6CCC6)c5n4)c3)no2)C1=O [Example 11, (R)-3-(3-(3-(4-(Azetidin-1-yl)pyrido[3,2-d]pyrimidin-6-yl)phenyl)isoxazol-5-yl)-3-hydroxy-1-methylpyrrolidin-2-one] | < 100 | > 501
8 | Cc1ccc(-c2cc([C@]3(O)CCN(C)C3=O)on2)cc1-c1nc2c(N)ncnc2s1 [Example 12, (R)-3-(3-(3-(7-Aminothiazolo[5,4-d]pyrimidin-2-yl)-4-methylphenyl)isoxazol-5-yl)-3-hydroxy-1-methylpyrrolidin-2-one] | < 100 | > 501
9 | CN1CC[C@@](O)(c2cc(-c3cccc(-c4nc5c(N)ncnc5s4)c3)no2)C1=O [Example 13, (R)-3-(3-(3-(7-Aminothiazolo[5,4-d]pyrimidin-2-yl)phenyl)isoxazol-5-yl)-3-hydroxy-1-methylpyrrolidin-2-one] | < 100 | > 501
10 | CN1CC[C@@](O)(c2cn(-c3cccc(-c4cccc(C(N)=O)n4)c3)nn2)C1=O [Example 14, (R)-6-(3-(4-(3-Hydroxy-1-methyl-2-oxopyrrolidin-3-yl)-1H-1,2,3-triazol-1-yl)phenyl)picolinamide] | < 100 | > 501
11 | CN1CC[C@@](O)(c2cn(-c3cccc(-c4nc(C(N)=O)n5ccccc45)c3)nn2)C1=O [Example 15, (R)-1-(3-(4-(3-Hydroxy-1-methyl-2-oxopyrrolidin-3-yl)-1H-1,2,3-triazol-1-yl)phenyl)imidazo[1,5-a]pyridine-3-carboxamide] | < 100 | < 100
12 | [2H]c1nc(N)c2nc(-c3cccc(-c4cc([C@]5(O)CCN(C)C5=O)no4)c3)ccc2n1 [Example 16, (R)-3-(5-(3-(4-Aminopyrido[3,2-d]pyrimidin-6-yl-2-d)phenyl)isoxazol-3-yl)-3-hydroxy-1-methylpyrrolidin-2-one] | < 100 | 100 to 500
13 | CN1CC[C@@](O)(c2cc(-c3cccc(-c4ccc5[nH]nc(N)c5n4)c3)on2)C1=O [Example 17, (R)-3-(5-(3-(3-Amino-1H-pyrazolo[4,3-b]pyridin-5-yl)phenyl)isoxazol-3-yl)-3-hydroxy-1-methylpyrrolidin-2-one] | < 100 | > 501
14 | CN1CC[C@@](O)(c2cc(-c3cccc(-c4cccc(C(N)=O)n4)c3)on2)C1=O [Example 18, (R)-6-(3-(3-(3-Hydroxy-1-methyl-2-oxopyrrolidin-3-yl)isoxazol-5-yl)phenyl)picolinamide] | < 100 | > 501
15 | CN1CC[C@@](O)(c2cc(-c3ccnc(N4CCc5ccnc(N)c5C4)c3)no2)C1=O [Example 20, (R)-3-(3-(2-(8-Amino-3,4-dihydro-2,7-naphthyridin-2(1H)-yl)pyridin-4-yl)isoxazol-5-yl)-3-hydroxy-1-methylpyrrolidin-2-one] | 100 to 500 | > 501
16 | COc1cc(C(N)=O)nc(-c2cc(-c3cc([C@]4(O)CCN(C)C4=O)on3)ccn2)c1 [Example 21, (R)-4′-(5-(3-Hydroxy-1-methyl-2-oxopyrrolidin-3-yl)isoxazol-3-yl)-4-methoxy-[2,2′-bipyridine]-6-carboxamide] | < 100 | > 501
17 | CN1CC[C@@](O)(c2cc(-c3ccnc(-n4nc(C(N)=O)c5ccccc54)c3)no2)C1=O [Example 22, (R)-1-(4-(5-(3-Hydroxy-1-methyl-2-oxopyrrolidin-3-yl)isoxazol-3-yl)pyridin-2-yl)-1H-indazole-3-carboxamide] | < 100 | < 100
18 | CN1CC[C@@](O)(c2cc(-c3cccc(-c4nc(C(N)=O)n5ccccc45)c3)no2)C1=O [Example 23, (R)-1-(3-(5-(3-Hydroxy-1-methyl-2-oxopyrrolidin-3-yl)isoxazol-3-yl)phenyl)imidazo[1,5-a]pyridine-3-carboxamide] | < 100 | < 100
19 | CN1CC[C@@](O)(c2cc(-c3cccc(-c4c[nH]c5ncccc45)c3)no2)C1=O [Example 24, (R)-3-(3-(3-(1H-Pyrrolo[2,3-b]pyridin-3-yl)phenyl)isoxazol-5-yl)-3-hydroxy-1-methylpyrrolidin-2-one] | 100 to 500 | > 501
20 | Cc1ncnc2ccc(-c3cccc(-c4cc([C@]5(O)CCN(C)C5=O)on4)c3)nc12 [Example 25, (R)-3-Hydroxy-1-methyl-3-(3-(3-(4-methylpyrido[3,2-d]pyrimidin-6-yl)phenyl)isoxazol-5-yl)pyrrolidin-2-one] | 100 to 500 | > 501
21 | Cc1cc(-c2cccc(-c3cc([C@]4(O)CCN(C)C4=O)on3)c2)nc2c(N)ncnc12 [Example 26, (R)-3-(3-(3-(4-Amino-8-methylpyrido[3,2-d]pyrimidin-6-yl)phenyl)isoxazol-5-yl)-3-hydroxy-1-methylpyrrolidin-2-one] | < 100 | < 100
22 | Cc1cc(-c2cccc(-c3cc([C@@]4(O)CCN(C)C4=O)on3)c2)nc2c(N)ncnc12 [Example 27, (S)-3-(3-(3-(4-Amino-8-methylpyrido[3,2-d]pyrimidin-6-yl)phenyl)isoxazol-5-yl)-3-hydroxy-1-methylpyrrolidin-2-one] | > 501 | > 501
